# Laboratory results taken from patent publication US20230183188A1, “ENPP1 MODULATORS AND USES THEREOF” (Vir Biotechnology, Inc., priority 2020, published 2023).
# Biological target: T1, recombinant protein containing the human ENPP1 enzymatic domain (Homo sapiens, UniProt P22413)
# T1 construct: recombinant protein containing the human ENPP1 enzymatic domain; purchased R&D Systems 6136-EN-010
# T1 sequence (P22413 191-591 limits assumed): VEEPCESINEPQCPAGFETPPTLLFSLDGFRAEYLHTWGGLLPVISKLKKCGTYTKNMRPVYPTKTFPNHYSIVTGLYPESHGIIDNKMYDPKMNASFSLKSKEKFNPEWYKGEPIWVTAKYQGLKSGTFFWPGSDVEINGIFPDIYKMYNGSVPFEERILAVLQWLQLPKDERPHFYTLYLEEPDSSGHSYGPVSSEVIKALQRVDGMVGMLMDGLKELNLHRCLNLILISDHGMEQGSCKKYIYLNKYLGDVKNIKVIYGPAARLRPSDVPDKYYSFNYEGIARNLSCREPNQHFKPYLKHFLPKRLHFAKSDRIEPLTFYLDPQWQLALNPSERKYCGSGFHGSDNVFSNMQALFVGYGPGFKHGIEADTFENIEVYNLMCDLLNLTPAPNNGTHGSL
# Test: ENPP1 Enzymatic Inhibition Assay (2′3′-cGAMP substrate, AMP-Glo luminescence)
# Type: biochemical
# Conditions: 1 nM ENPP1, 20 uM 2′3′-cGAMP substrate, 30 minutes at 37° C.
# Experimental: The inhibition of ENPP1's phosphodiesterase activity were tested in a purified enzymatic assay using 2′3′-cyclic GAMP as a substrate which allowed for the release of cleaved AMP to be monitored using a luminescent assay.
# Putative inhibitors were diluted in assay buffer (50 mM Tris pH 8.0, 250 mM NaCl, 0.5 mM CaCl2, 1 uM ZnCl2, 1% DMSO) and pre-incubated for 15 minutes at 37° C. with recombinant protein containing the human ENPP1 enzymatic domain (R&D Systems cat. #6136-EN-010). The enzymatic reaction was initiated upon addition of the 2′3′-cGAMP substrate. The final reaction concentrations were 1 nM ENPP1 and 20 uM 2′3′-cGAMP substrate in a 25 uL volume. Inhibitor concentrations ranged from 10 uM to 0.2 nM. The reaction was incubated for 30 minutes at 37° C.
# After reacting for 30 minutes, the amount of AMP generated from the cleavage of 2′3′-cGAMP was determined using the Promega AMP-Glo method according to the manufacturer's protocol. First, AMP-Glo reagent 1 was added and incubated with the reaction mix for 1 hour at room temperature. Second, AMP Detection solution was added and the mixture was incubated for an additional hour. The luminescence of the mixture was read on a Perkin Elmer Ensight plate reader.
# The maximum and minimum levels of ENPP1 activity were established using no inhibitor and no enzyme controls, respectively. The activity observed using ENPP1 inhibitors was quantified as the percent of activity relative to these controls. IC50 values were calculated using GraphPad Prism by fitting a sigmoidal variable slope nonlinear regression model to the data.
row,SMILES,IC50
1,"COc1ccc2c(Oc3ccc(S(=N)(=O)N4CCOCC4)cc3)ccnc2c1 (centres unmarked) [Compound 18, 4-(4-((7-methoxyquinolin-4-yl)oxy)phenylsulfonimidoyl)morpholine]",> 100 nM
2,"CN=S(N)(=O)c1ccc(CNc2ccnc3cc(OC)ccc23)cc1 (centres unmarked) [Compound 3, 4-(((7-methoxyquinolin-4-yl)amino)methyl)-N-methylbenzenesulfonimidamide]",> 100 nM
3,"COc1ccc2c(Oc3ccc(S4(=O)=NC(=O)CN4)cc3)ccnc2c1 (centres unmarked) [Compound 8, 1-(4-((7-methoxyquinolin-4-yl)oxy)phenyl)-4,5-dihydro-3H-1λ^6,2,5-thiadiazol-3-one 1-oxide]",> 100 nM
4,"COc1ccc2c(Oc3ccc(S(=N)(=O)N(C)C)cc3)ccnc2c1 (centres unmarked) [Compound 32, 4-((7-methoxyquinolin-4-yl)oxy)-N, N-dimethylbenzenesulfonimidamide]",> 100 nM
5,"COc1ccc2c(Oc3ccc(S(N)(=O)=NCCc4ccccc4)cc3)ccnc2c1 (centres unmarked) [Compound 19, 4-((7-methoxyquinolin-4-yl)oxy)-N′-phenethylbenzenesulfonimidamide]",10 to 100 nM
6,"COc1ccc2c(Oc3ccc(S(N)(=O)=NC[C@H]4CCCN4C(=O)OC(C)(C)C)cc3)ccnc2c1 (stereo partly drawn) [Compound 5, tert-butyl (2R)-2-(((amino(4-((7-methoxyquinolin-4-yl)oxy)phenyl)(oxo)-I^6-sulfaneylidene)amino)methyl) pyrrolidine-1-carboxylate]",10 to 100 nM
7,"COc1ccc2c(Oc3ccc(S(N)(=O)=Nc4ccccc4)cc3)ccnc2c1 (centres unmarked) [Compound 20, 4-((7-methoxyquinolin-4-yl)oxy)-N′-phenylbenzenesulfonimidamide]",10 to 100 nM
8,"COc1ccc2c(Oc3ccc(S(N)(=O)=NCc4ccncc4)cc3)ccnc2c1 (centres unmarked) [Compound 28, 4-((7-methoxyquinolin-4-yl)oxy)-N′-(pyridin-4-ylmethyl)benzenesulfon imidamide]",10 to 100 nM
9,"COc1ccc2c(Oc3ccc(S(N)(=O)=NC4CC4)cc3)ccnc2c1 (centres unmarked) [Compound 21, N′-cyclopropyl-4-((7-methoxyquinolin-4-yl)oxy)benzenesulfonimidamide]",10 to 100 nM
10,"COc1ccc2c(Oc3ccc(S(N)(=O)=NC[C@H]4CCCN4)cc3)ccnc2c1 (stereo partly drawn) [Compound 6, 4-((7-methoxyquinolin-4-yl)oxy)-N′-(((R)-pyrrolidin-2-yl)methyl)benzenesulfonimidamide]",10 to 100 nM
11,"CNS(=N)(=O)c1ccc(Oc2ccnc3cc(OC)ccc23)cc1 (centres unmarked) [Compound 31, 4-((7-methoxyquinolin-4-yl)oxy)-N′-methylbenzenesulfonimidamide]",10 to 100 nM
12,COc1ccc2c(Oc3ccc(S(N)(=O)=NCC(=O)O)cc3)ccnc2c1 (centres unmarked) [Compound 7],10 to 100 nM
13,"COc1ccc2c(Oc3ccc(S(=N)(=O)N4CCCC4)cc3)ccnc2c1 (centres unmarked) [Compound 24, 7-methoxy-4-(4-(pyrrolidine-1-sulfonimidoyl)phenoxy)quinoline]",> 100 nM
14,"COc1ccc2c(Oc3ccc(S(N)(=O)=Nc4ccc(-c5ccncc5)cc4)cc3)ccnc2c1 (centres unmarked) [Compound 38, 4-((7-methoxyquinolin-4-yl)oxy)-N′-(4-(pyridin-4-yl)phenyl)benzenesulfonimidamide]",10 to 100 nM
15,"CCN(CC)S(=N)(=O)c1ccc(Oc2ccnc3cc(OC)ccc23)cc1 (centres unmarked) [Compound 23, N,N-diethyl-4-((7-methoxyquinolin-4-yl)oxy)benzenesulfonimidamide]",> 100 nM
16,"COc1ccc2c(Oc3ccc(S(N)(=O)=NCCN)cc3)ccnc2c1 (centres unmarked) [Compound 40, N′-(2-aminoethyl)-4-((7-methoxyquinolin-4-yl)oxy)benzenesulfonimidamide]",10 to 100 nM
17,"COc1ccc2c(Oc3ccc(S(=N)(N)=O)cc3)ccnc2c1 (centres unmarked) [Compound 30, 4-((7-methoxyquinolin-4-yl)oxy)benzenesulfonimidamide]",10 to 100 nM
18,"COc1ccc2c(Oc3ccc(S(=N)(=O)N4CCN(C)CC4)cc3)ccnc2c1 (centres unmarked) [Compound 29, 7-methoxy-4-(4-(4-methylpiperazine-1-sulfonimidoyl)phenoxy)quinoline]",10 to 100 nM
19,"COc1ccc2c(Oc3ccc(S(N)(=O)=NCCO)cc3)ccnc2c1 (centres unmarked) [Compound 9, N-(2-hydroxyethyl)-4-((7-methoxyquinolin-4-yl)oxy)benzenesulfonimidamide]",10 to 100 nM

# Second part, the compound after the results:
row,IC50,SMILES
1,< 10 nM,"COc1ccc2c(Oc3ccc(S(=N)(=O)NC[C@@H](O)CO)cc3)ccnc2c1 (single isomer, unassigned) [Compound 45]"
2,10 to 100 nM,"COc1ccc2c(Oc3ccc(S(N)(=O)=NCc4ccccn4)cc3)ccnc2c1 (centres unmarked) [Compound 26, 4-((7-methoxyquinolin-4-yl)oxy)-N′-(pyridin-2-ylmethyl)benzenesulfonimidamide]"
3,10 to 100 nM,"COc1ccc2c(Oc3ccc(S(N)(=O)=NC[C@@H]4CCCN4)cc3)ccnc2c1 (stereo partly drawn) [Compound 44, 4-((7-methoxyquinolin-4-yl)oxy)-N′-(((S)-pyrrolidin-2-yl)methyl)benzenesulfonimidamide]"
4,< 10 nM,"COc1ccc2c(Oc3ccc(S(N)(=O)=NCc4nccs4)cc3)ccnc2c1 (centres unmarked) [Compound 17, 4-((7-methoxyquinolin-4-yl)oxy)-N′-(thiazol-2-ylmethyl)benzenesulfonimidamide]"
5,< 10 nM,"COc1ccc2c(Oc3ccc(S(N)(=O)=NCc4ccccc4)cc3)ccnc2c1 (centres unmarked) [Compound 25, N′-benzyl-4-((7-methoxyquinolin-4-yl)oxy)benzenesulfonimidamide]"
6,< 10 nM,"COc1ccc2c(Oc3ccc(S(N)(=O)=NCc4nccn4C)cc3)ccnc2c1 (centres unmarked) [Compound 16, 4-((7-methoxyquinolin-4-yl)oxy)-N′-((1-methyl-1H-imidazol-2-yl)methyl)benzenesulfonimidamide]"
7,< 10 nM,"CCS(=N)(=O)c1ccc(Oc2ccnc3cc(OC)ccc23)cc1 (centres unmarked) [Compound 4, ethyl(imino)(4-((7-methoxyquinolin-4-yl)oxy)phenyl)-λ^6-sulfanone]"
8,< 10 nM,"CN=S(N)(=O)c1ccc(Nc2ncnc3cc(OC)ccc23)cc1 (centres unmarked) [Compound 2, 4-((7-methoxyquinazolin-4-yl)amino)-N-methylbenzenesulfonimidamide]"
9,< 10 nM,"COc1ccc2c(Oc3ccc(S(N)(=O)=NCC(C)(C)O)cc3)ccnc2c1 (centres unmarked) [Compound 11, N′-(2-hydroxy-2-methylpropyl)-4-((7-methoxyquinolin-4-yl)oxy)benzenesulfonimidamide]"
10,< 10 nM,"COc1ccc2c(Oc3ccc(S(N)(=O)=NCCOc4cccnc4)cc3)ccnc2c1 (centres unmarked) [Compound 13, 4-((7-methoxyquinolin-4-yl)oxy)-N′-(2-(pyridin-3-yloxy)ethyl)benzenesulfonimidamide]"
11,< 10 nM,"COc1ccc2c(Oc3ccc(S(N)(=O)=NCC(F)(F)F)cc3)ccnc2c1 (centres unmarked) [Compound 37, 4-((7-methoxyquinolin-4-yl)oxy)-N′-(2,2,2-trifluoroethyl)benzenesulfonimidamide]"
12,< 10 nM,"COc1ccc2c(Oc3ccc(S(N)(=O)=NCc4ncco4)cc3)ccnc2c1 (centres unmarked) [Compound 15, 4-((7-methoxyquinolin-4-yl)oxy)-N′-(oxazol-2-ylmethyl)benzenesulfonimidamide]"
13,< 10 nM,"COc1ccc2c(Oc3ccc(S(N)(=O)=NCCOc4ccccn4)cc3)ccnc2c1 (centres unmarked) [Compound 12, 4-((7-methoxyquinolin-4-yl)oxy)-N′-(2-(pyridin-2-yloxy)ethyl)benzenesulfonimidamide]"
